Common to all, as to format: biochemical
Experiment [1] has as its target human JAK1 (a.a. 837-1142) (Homo sapiens, UniProt P23458). The experiment in a line: In vitro JAK kinase assay (HTRF, phosphorylation of a biotinylated peptide), JAK1. Conditions: measured at 1 mM ATP. In a few lines:
(§1)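 N-terminal His-tagged catalytic domains, baculovirus-expressed in insect cells, phosphorylated a biotinylated peptide for 1 hr at room temperature. EDTA stop was followed by SA-APC and Eu-Py20 antibody for 40 minutes, with phosphopeptide read by HTRF.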

In experiment [2] the target is human JAK1 (a.a. 837-1142). The description is as above. As to conditions: ratio of JAK2 IC50 to JAK1 IC50, measured at 1 mM ATP. In a few lines: as §1
In the next experiment the target is Jak2 (a.a. 828-1132) (Homo sapiens (Human), UniProt O60674). The experiment in a line: In vitro JAK kinase assay (HTRF, phosphorylation of a biotinylated peptide), JAK2. Conditions: measured at 1 mM ATP. The gist of the method:
as §1

pIC50: −log10 of the molar value.

Sequence of Jak2 (a.a. 828-1132) (O60674 828-1132): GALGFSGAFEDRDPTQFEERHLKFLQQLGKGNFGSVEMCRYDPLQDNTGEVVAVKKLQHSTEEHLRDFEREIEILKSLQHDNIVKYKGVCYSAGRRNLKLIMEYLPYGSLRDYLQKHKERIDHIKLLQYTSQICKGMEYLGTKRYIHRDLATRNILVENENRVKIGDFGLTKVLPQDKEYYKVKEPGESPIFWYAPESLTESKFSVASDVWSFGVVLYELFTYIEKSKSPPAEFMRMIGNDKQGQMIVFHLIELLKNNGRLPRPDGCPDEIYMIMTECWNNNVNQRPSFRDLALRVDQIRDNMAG

For orientation: pIC50 means the IC50 on a negative log10 scale, so that one unit is a factor of ten. Regarding `N#CCC1(n2ccc(-c3ncnc4[nH]ccc34)c2)CN(C2CCN(C(=O)c3cc(F)ccc3F)CC2)C1` [Example 278, {1-[1-(2,5-difluorobenzoyl)piperidin-4-yl]-3-[3-(7H-pyrrolo[2,3-d]pyrimidin-4-yl)-1H-pyrrol-1-yl]azetidin-3-yl}acetonitrile], the negative logarithm of the IC50 (pIC50) in experiment [1] is not below 8.30; against Jak2 (a.a. 828-1132) it was not below 8.00. Also, the “IC50 Ratio JAK2/JAK1” value in experiment [2] is 5.6.

As for `N#CCC1(n2ccc(-c3ncnc4[nH]ccc34)c2)CN(C2CCN(C(=O)c3c(F)cccc3F)CC2)C1` [Example 279, {1-[1-(2,6-difluorobenzoyl)piperidin-4-yl]-3-[3-(7H-pyrrolo[2,3-d]pyrimidin-4-yl)-1H-pyrrol-1-yl]azetidin-3-yl}acetonitrile], the figures for the negative-log IC50 (pIC50) (in experiment [1]; against Jak2 (a.a. 828-1132)) were not below 8.30 and not below 8.00, respectively. Moreover, the “IC50 Ratio JAK2/JAK1” value in experiment [2] stood at 4.1.

As to `N#CCC1(n2ccc(-c3ncnc4[nH]ccc34)c2)CN(C2CCN(C(=O)c3ccc(F)c(F)c3F)CC2)C1` [Example 280, {3-[3-(7H-pyrrolo[2,3-d]pyrimidin-4-yl)-1H-pyrrol-1-yl]-1-[1-(2,3,4-trifluorobenzoyl)piperidin-4-yl]azetidin-3-yl}acetonitrile], the pIC50 in experiment [1] is not below 8.30; against Jak2 (a.a. 828-1132), not below 8.00. Moreover, the “IC50 Ratio JAK2/JAK1” value in experiment [2] is reported as 7.5.

With `N#CCC1(n2ccc(-c3ncnc4[nH]ccc34)c2)CN(C2CCN(C(=O)c3cccc(OC(F)(F)F)c3F)CC2)C1` [Example 281, {1-{1-[2-fluoro-3-(trifluoromethoxy)benzoyl]piperidin-4-yl}-3-[3-(7H-pyrrolo[2,3-d]pyrimidin-4-yl)-1H-pyrrol-1-yl]azetidin-3-yl}acetonitrile], the values for the negative logarithm of the IC50 (pIC50) (in experiment [1]; against Jak2 (a.a. 828-1132)) were not below 8.30 and 7.30 to 8.00, respectively. Moreover, the “IC50 Ratio JAK2/JAK1” value in experiment [2] was found to be 10.0.

`N#CCC1(n2ccc(-c3ncnc4[nH]ccc34)c2)CN(C2CCN(C(=O)c3ccc(O)c(C(F)(F)F)c3)CC2)C1` [Example 282, {1-{1-[4-hydroxy-3-(trifluoromethyl)benzoyl]piperidin-4-yl}-3-[3-(7H-pyrrolo[2,3-d]pyrimidin-4-yl)-1H-pyrrol-1-yl]azetidin-3-yl}acetonitrile]: the pIC50 in experiment [1] was 7.70 to 8.30; on Jak2 (a.a. 828-1132), 7.30 to 8.00. Moreover, the “IC50 Ratio JAK2/JAK1” value in experiment [2] is reported as 3.4.

For `N#CCC1(n2ccc(-c3ncnc4[nH]ccc34)c2)CN(C2CCN(C(=O)Nc3ccc(F)cc3C(F)(F)F)CC2)C1` [Example 283, 4-{3-(Cyanomethyl)-3-[3-(7H-pyrrolo[2,3-d]pyrimidin-4-yl)-1H-pyrrol-1-yl]azetidin-1-yl}-N-[4-fluoro-2-(trifluoromethyl)phenyl]piperidine-1-carboxamide], the results for the pIC50 (in experiment [1]; on Jak2 (a.a. 828-1132)) were not below 8.30 and 7.00 to 7.30, respectively. Moreover, the “IC50 Ratio JAK2/JAK1” value in experiment [2] is reported as 35.6.

In the case of `COc1ncccc1NC(=O)N1CCC(N2CC(CC#N)(n3ccc(-c4ncnc5[nH]ccc45)c3)C2)CC1` [Example 284, 4-{3-(cyanomethyl)-3-[3-(7H-pyrrolo[2,3-d]pyrimidin-4-yl)-1H-pyrrol-1-yl]azetidin-1-yl}-N-(2-methoxypyridin-3-yl)piperidine-1-carboxamide], the pIC50 in experiment [1] is not below 8.30; against Jak2 (a.a. 828-1132) it was 7.30 to 8.00. The “IC50 Ratio JAK2/JAK1” value in experiment [2] is 5.8.

Regarding `Cc1nc(C(F)(F)F)ccc1NC(=O)N1CCC(N2CC(CC#N)(n3ccc(-c4ncnc5[nH]ccc45)c3)C2)CC1` [Example 285, 4-{3-(cyanomethyl)-3-[3-(7H-pyrrolo[2,3-d]pyrimidin-4-yl)-1H-pyrrol-1-yl]azetidin-1-yl}-N-[2-methyl-6-(trifluoromethyl)pyridin-3-yl]piperidine-1-carboxamide], the pIC50 in experiment [1] is 7.70 to 8.30; against Jak2 (a.a. 828-1132), 7.30 to 8.00. Also, in experiment [2], the “IC50 Ratio JAK2/JAK1” value came out at 5.7.

For `N#CCC1(n2ccc(-c3ncnc4[nH]ccc34)c2)CN(C2CCN(C(=O)Nc3ccc(F)cc3F)CC2)C1` [Example 286, 4-{3-(cyanomethyl)-3-[3-(7H-pyrrolo[2,3-d]pyrimidin-4-yl)-1H-pyrrol-1-yl]azetidin-1-yl}-N-(2,4-difluorophenyl)piperidine-1-carboxamide], the negative logarithm of the IC50 (pIC50) in experiment [1] was not below 8.30; on Jak2 (a.a. 828-1132), 7.30 to 8.00. Further, the “IC50 Ratio JAK2/JAK1” value in experiment [2] came to 13.1.

Take `N#CCC1(n2ccc(-c3ncnc4[nH]ccc34)c2)CN(C2CCN(C(=O)Nc3ccccc3C#N)CC2)C1` [Example 287, 4-{3-(cyanomethyl)-3-[3-(7H-pyrrolo[2,3-d]pyrimidin-4-yl)-1H-pyrrol-1-yl]azetidin-1-yl}-N-(2-cyanophenyl)piperidine-1-carboxamide]: the values for the negative logarithm of the IC50 (pIC50) (in experiment [1]; against Jak2 (a.a. 828-1132)) were 7.70 to 8.30 and 7.00 to 7.30, respectively. For the same molecule, the “IC50 Ratio JAK2/JAK1” value in experiment [2] was 6.7.

With `COc1ccccc1NC(=O)N1CCC(N2CC(CC#N)(n3ccc(-c4ncnc5[nH]ccc45)c3)C2)CC1` [Example 288, 4-{3-(cyanomethyl)-3-[3-(7H-pyrrolo[2,3-d]pyrimidin-4-yl)-1H-pyrrol-1-yl]azetidin-1-yl}-N-(2-methoxyphenyl)piperidine-1-carboxamide], the negative-log IC50 (pIC50) is not below 8.30 in experiment [1] and not below 8.00 at Jak2 (a.a. 828-1132). In experiment [2], the “IC50 Ratio JAK2/JAK1” value was 9.0.

`N#CCC1(n2ccc(-c3ncnc4[nH]ccc34)c2)CN(C2CCN(C(=O)Nc3ncccc3C(F)(F)F)CC2)C1` [Example 290, 4-{3-(cyanomethyl)-3-[3-(7H-pyrrolo[2,3-d]pyrimidin-4-yl)-1H-pyrrol-1-yl]azetidin-1-yl}-N-[3-(trifluoromethyl)pyridin-2-yl]piperidine-1-carboxamide]: the negative-log IC50 (pIC50) in experiment [1] is 7.52 to 7.70; against Jak2 (a.a. 828-1132), less than 7.00. In addition, in experiment [2], the “IC50 Ratio JAK2/JAK1” value is recorded as 3.9.

Turning to `N#CCC1(n2ccc(-c3ncnc4[nH]ccc34)c2)CN(C2CCN(C(=O)Nc3cnccc3C(F)(F)F)CC2)C1` [Example 291, 4-{3-(cyanomethyl)-3-[3-(7H-pyrrolo[2,3-d]pyrimidin-4-yl)-1H-pyrrol-1-yl]azetidin-1-yl}-N-[4-(trifluoromethyl)pyridin-3-yl]piperidine-1-carboxamide], the negative-log IC50 (pIC50) was not below 8.30 in experiment [1] and 7.00 to 7.30 against Jak2 (a.a. 828-1132). In addition, the “IC50 Ratio JAK2/JAK1” value in experiment [2] stood at 20.3.

In the case of `N#CCC1(n2ccc(-c3ncnc4[nH]ccc34)c2)CN(C2CCN(C(=O)Nc3ncccc3F)CC2)C1` [Example 292, 4-{3-(cyanomethyl)-3-[3-(7H-pyrrolo[2,3-d]pyrimidin-4-yl)-1H-pyrrol-1-yl]azetidin-1-yl}-N-(3-fluoropyridin-2-yl)piperidine-1-carboxamide], the negative logarithm of the IC50 (pIC50) in experiment [1] is not below 8.30; at Jak2 (a.a. 828-1132), 7.30 to 8.00. Also, the “IC50 Ratio JAK2/JAK1” value in experiment [2] is reported as 9.1.

Regarding `N#CCC1(n2ccc(-c3ncnc4[nH]ccc34)c2)CN(C2CCN(C(=O)Nc3ccc(Cl)cc3C#N)CC2)C1` [Example 293, 4-{3-(cyanomethyl)-3-[3-(7H-pyrrolo[2,3-d]pyrimidin-4-yl)-1H-pyrrol-1-yl]azetidin-1-yl}-N-(4-chloro-2-cyanophenyl)piperidine-1-carboxamide], the figures for the negative-log IC50 (pIC50) (in experiment [1]; against Jak2 (a.a. 828-1132)) were not below 8.30 and 7.30 to 8.00, respectively. For the same molecule, in experiment [2], the “IC50 Ratio JAK2/JAK1” value worked out at 3.4.

As for `N#CCC1(n2cc(-c3ccnc4[nH]ccc34)cn2)CN(C2CCN(C(=O)c3ccc(C#N)cc3F)CC2)C1` [Example 295, 4-[(4-{3-(cyanomethyl)-3-[4-(1H-pyrrolo[2,3-b]pyridin-4-yl)-1H-pyrazol-1-yl]azetidin-1-yl}piperidin-1-yl)carbonyl]-3-fluorobenzonitrile], the values for the pIC50 (in experiment [1]; at Jak2 (a.a. 828-1132)) were 7.70 to 8.30 and 7.30 to 8.00, respectively. In experiment [2], the “IC50 Ratio JAK2/JAK1” value came out at 5.1.

Regarding `N#CCC1(n2cc(-c3ccnc4[nH]ccc34)cn2)CN(C2CCN(C(=O)c3ccc(O)c(F)c3)CC2)C1` [Example 296, {1-[1-(3-fluoro-4-hydroxybenzoyl)piperidin-4-yl]-3-[4-(1H-pyrrolo[2,3-b]pyridin-4-yl)-1H-pyrazol-1-yl]azetidin-3-yl}acetonitrile], the pIC50 in experiment [1] was not below 8.30; at Jak2 (a.a. 828-1132), 7.30 to 8.00. Besides, the “IC50 Ratio JAK2/JAK1” value in experiment [2] is 4.6.

`N#CCC1(n2cc(-c3ccnc4[nH]ccc34)cn2)CN(C2CCN(C(=O)c3ccc(O)cc3F)CC2)C1` [Example 297, {1-[1-(2-fluoro-4-hydroxybenzoyl)piperidin-4-yl]-3-[4-(1H-pyrrolo[2,3-b]pyridin-4-yl)-1H-pyrazol-1-yl]azetidin-3-yl}acetonitrile]: the pIC50 was not below 8.30 in experiment [1] and not below 8.00 on Jak2 (a.a. 828-1132). Further, the “IC50 Ratio JAK2/JAK1” value in experiment [2] came to 10.0.

`N#CCC1(n2cc(-c3ccnc4[nH]ccc34)cn2)CN(C2CCN(C(=O)c3cc(C(F)(F)F)ncc3Cl)CC2)C1` [Example 298, {1-{1-[5-chloro-2-(trifluoromethyl)isonicotinoyl]piperidin-4-yl}-3-[4-(1H-pyrrolo[2,3-b]pyridin-4-yl)-1H-pyrazol-1-yl]azetidin-3-yl}acetonitrile]: the pIC50 was 7.52 to 7.70 in experiment [1] and 7.00 to 7.30 against Jak2 (a.a. 828-1132). For the same molecule, the “IC50 Ratio JAK2/JAK1” value in experiment [2] came out at 2.8.

For the molecule `N#CCC1(n2cc(-c3ccnc4[nH]ccc34)cn2)CN(C2CCN(C(=O)c3ccnc(C(F)(F)F)n3)CC2)C1` [Example 299, [3-[4-(1H-pyrrolo[2,3-b]pyridin-4-yl)-1H-pyrazol-1-yl]-1-(1-{[2-(trifluoromethyl)pyrimidin-4-yl]carbonyl}piperidin-4-yl)azetidin-3-yl]acetonitrile], the pIC50 is 7.52 to 7.70 in experiment [1] and less than 7.00 at Jak2 (a.a. 828-1132). The “IC50 Ratio JAK2/JAK1” value in experiment [2] was found to be 6.6.

Take `N#CCC1(n2cc(-c3ccnc4[nH]ccc34)cn2)CN(C2CCN(C(=O)c3cncc(C(F)(F)F)n3)CC2)C1` [Example 300, [3-[4-(1H-pyrrolo[2,3-b]pyridin-4-yl)-1H-pyrazol-1-yl]-1-(1-{[6-(trifluoromethyl)pyrazin-2-yl]carbonyl}piperidin-4-yl)azetidin-3-yl]acetonitrile]: the negative logarithm of the IC50 (pIC50) in experiment [1] was 7.70 to 8.30; on Jak2 (a.a. 828-1132), less than 7.00. Besides, the “IC50 Ratio JAK2/JAK1” value in experiment [2] is on record as 11.7.

The values above are taken from patent US9999619B2, “Piperidin-4-yl azetidine derivatives as JAK1 inhibitors” (Incyte Corporation, priority 2010, dated 2018).
